Experimental data from ChEMBL document CHEMBL1201862, “PubChem BioAssay data set” (2004).
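Results reflect a 48-hour exposure of cells in 96-well plates to compound at five concentrations. Abbreviation: GI50, concentration required for 50% inhibition of growth.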 Calls of active or inactive are those of the source. No stated cut-off is given here; in the data, active = GI50 up to about 1.1 µM and inactive = higher.

Tests used:
Assay in all cases: DTP human tumour cell line panel, 48 h
[1] = system: 786-0
[2] = system: A498
[3] = system: A549
[4] = system: ACHN
[5] = system: CAKI-1
[6] = system: CCRF-CEM
[7] = system: COLO 205
[8] = system: DU-145
[9] = system: EKVX
[10] = system: HCC 2998
[11] = system: HCT-116
[12] = system: HCT-15
[13] = system: HL-60
[14] = system: HOP-62
[15] = system: HOP-92
[16] = system: HT-29
[17] = system: Hs-578T
[18] = system: IGROV-1
[19] = system: K562
[20] = system: KM12
[21] = system: LOX IMVI
[22] = system: M14
[23] = system: MCF7
[24] = system: MDA-MB-231
[25] = system: MDA-MB-435
[26] = system: MDA-N
[27] = system: MOLT-4
[28] = system: Malme-3M
[29] = system: NCI-H226
[30] = system: NCI-H23
[31] = system: NCI-H460
[32] = system: NCI-H522
[33] = system: NCI/ADR-RES
[34] = system: OVCAR-3
[35] = system: OVCAR-4
[36] = system: OVCAR-5
[37] = system: OVCAR-8
[38] = system: PC-3
[39] = system: RPMI-8226
[40] = system: RXF 393
[41] = system: SF-268
[42] = system: SF-295
[43] = system: SF-539
[44] = system: SK-MEL-28
[45] = system: SK-MEL-5
[46] = system: SK-OV-3
[47] = system: SN12C
[48] = system: SNB-19
[49] = system: SW-620
[50] = system: T47D
[51] = system: TK-10
[52] = system: U-251
[53] = system: UACC-257
[54] = system: UACC-62
[55] = system: UO-31
[56] = system: SK-MEL-2
[57] = system: SR

Measured: GI50

CCOC(=O)C(C(=O)OCC)C(NC(=O)Nc1cc(C(F)(F)F)ccc1OC)(C(F)(F)F)C(F)(F)F
inactive: [1] 24.6 µM | [2] 16.5 µM | [3] 39.4 µM | [4] 29.1 µM | [5] 29.4 µM | [6] 20.8 µM | [7] 17.8 µM | [8] 40.3 µM | [9] 70.3 µM | [10] 25.6 µM | [11] 36.2 µM | [13] 21.8 µM | [14] 25.4 µM | [15] 25.5 µM | [16] 35.8 µM | [17] 25.2 µM | [18] 25.4 µM | [19] 24.2 µM | [20] 26.9 µM | [21] 29.8 µM | [22] 21.1 µM | [23] 37.2 µM | [24] 17.4 µM | [25] 19.1 µM | [26] 33.2 µM | [27] 24 µM | [28] 24.5 µM | [29] 25.5 µM | [30] 35.3 µM | [31] 31.5 µM | [32] 22.3 µM | [33] 28.6 µM | [34] 26.1 µM | [35] 23.2 µM | [36] 45.8 µM | [37] 31.6 µM | [38] 39.6 µM | [39] 18.8 µM | [40] 30.3 µM | [41] 36.4 µM | [42] 23.2 µM | [43] 19.5 µM | [44] 37.5 µM | [45] 19.4 µM | [46] 47.6 µM | [47] 27.5 µM | [48] 39.9 µM | [49] 24.6 µM | [50] 30.4 µM | [51] 59 µM | [52] 29.2 µM | [53] 39.5 µM | [54] 22.5 µM | [55] 21 µM
45.8 µM: [12]

C=C[C@H]1CC[C@H]2[C@@H]3CC=C4C[C@@H](OC5OCC(O)C(O)C5O)CC[C@]4(C)[C@H]3CC[C@]12C (stereo not given in full)
25.5 µM: [12]
inactive: [1] 15.3 µM | [2] 4.22 µM | [3] 12.9 µM | [4] 2.83 µM | [5] 6.62 µM | [6] 24.8 µM | [7] 21.7 µM | [8] 34.1 µM | [11] 13.7 µM | [13] 29.7 µM | [14] 18 µM | [15] 1.97 µM | [16] 24.4 µM | [17] 17.1 µM | [18] 10 µM | [19] 25.8 µM | [20] 12.9 µM | [21] 10.8 µM | [22] 16.1 µM | [23] 36.8 µM | [24] 11.4 µM | [25] 15.9 µM | [26] 17.6 µM | [27] 46.6 µM | [29] 15.5 µM | [30] 26.1 µM | [31] 13.1 µM | [32] 11.4 µM | [33] 15.9 µM | [34] 11.9 µM | [36] 11.7 µM | [37] 16.3 µM | [38] 14.3 µM | [39] 81.7 µM | [41] 13.8 µM | [42] 15.2 µM | [43] 14.9 µM | [56] 16.6 µM | [45] 18.2 µM | [46] 12.9 µM | [47] 15.7 µM | [48] 25.7 µM | [57] 14.7 µM | [49] 17.7 µM | [50] 14.3 µM | [52] 14.9 µM | [53] 82.8 µM | [54] 15.5 µM | [55] 13.3 µM
